Laboratory results as given in PubChem BioAssay (NCI).
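Compound exposure: 48 hours, 5 concentrations, 96-well plates. At the TGI there is no net growth.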

Experiments:
Assay in all cases: NCI tumour cell line growth inhibition, 48 h
[1] = test system: RXF-631 renal
[2] = test system: XF 498 CNS
[3] = test system: HOP-18 NSCLC

| Compound | TGI [1] | TGI [2] | TGI [3] |
| --- | --- | --- | --- |
| Cc1ccc(S(=O)(=O)NC(=O)C2S(=O)(=O)OCCOS2(=O)=O)cc1 | > 100 µM | > 100 µM | – |
| [N-]=[N+]=CC(=O)C1(C(=O)C=[N+]=[N-])CC1 | – | > 100 µM | > 100 µM |
| Nc1cn(C2OC(CC(c3ccccc3)(c3ccccc3)c3ccccc3)C(O)C2O)c(=O)[nH]c1=O (centres undefined) | > 100 µM | 46.5 µM | 67.7 µM |
| CC(C)OP(=O)(OC(C)C)C(=NCCO)NNc1ccc([N+](=O)[O-])cc1 | – | > 100 µM | – |
| CC1CC(=O)Nc2ccc(Cl)cc2N1C(=O)CN1CCC(CCCCN(C)C)CC1 (centres undefined) | > 100 µM | – | > 100 µM |
| CCOC(=O)/C=C/n1c2ccccc2c(=O)c2cc(OC)ccc21 | > 100 µM | > 100 µM | > 100 µM |
| COC(=O)C(C(=O)C(=O)Nc1ccc(C)cc1)c1nc2ccc([N+](=O)[O-])cc2[nH]c1=O (centres undefined) | – | > 100 µM | > 100 µM |
| NC(CCSCC(F)(F)F)C(=O)O (centres undefined) | – | – | > 100 µM |
| CCCCn1c(-c2ccccc2)cs/c1=N\N=C1C=C(C(C)(C)C)C(=O)C(C(C)(C)C)=C1 | > 100 µM | > 100 µM | – |
| O=C(Nc1cccc(C(F)(F)F)c1)C(=O)C(C(=O)c1ccc(Cl)c(Cl)c1)C1OC(=O)c2ccccc21 (centres undefined) | > 100 µM | > 100 µM | > 100 µM |
| O=C1NC(=O)C(C(=O)C(=O)Nc2cc(Cl)ccc2Cl)C(=O)N1 | > 100 µM | – | – |
| CCN(CC)CC1CCCCN1CC(=O)N1c2cc(Cl)ccc2NC(=O)CC1C (centres undefined) | – | > 100 µM | – |
| C/C(=N\Nc1ccccc1)c1sc(-c2nc(C)c(/C(C)=N/Nc3ccccc3)s2)nc1C | – | > 100 µM | > 96.6 µM |
| C/C(=C1/N=C(c2cc([N+](=O)[O-])ccc2Cl)N(c2ccc(Br)cc2)C1=O)c1ccc(N(CCC#N)CCC#N)cc1C | > 100 µM | > 100 µM | > 100 µM |
| CC(=O)NNc1nc(C)c(C(=O)NNC(=O)C(=O)Nc2ccc(Cl)c([N+](=O)[O-])c2)s1 | – | > 100 µM | – |
| N#C/C(=C\c1ccc(O)c(O)c1)c1c(C#N)c(N)nn1-c1ccccc1 | – | – | 29.1 µM |
| COC1(OC)CC2C(=O)N(Cc3ccccc3)C1C(S(=O)(=O)c1ccccc1)C2C(C)S(=O)(=O)c1ccccc1 (centres undefined) | – | > 100 µM | > 100 µM |
| C[N+]1=C(c2cccnc2/C=N/O)OCC1(C)C | – | > 100 µM | > 100 µM |
| Oc1ccc(-c2c3ccccc3c(-c3ccc(O)cc3)c3ccccc23)cc1 | – | > 100 µM | > 100 µM |
| O=C(Nc1ccccc1[N+](=O)[O-])/C(=N/Nc1cccc(Cl)c1)c1c(O)c2ccccc2oc1=O | – | – | > 100 µM |
| Cc1ccc2nc(N)[nH]c(=O)c2c1Sc1ccncc1 | – | > 100 µM | > 100 µM |
